Source: the CheMixHub viscosity set

Experiment: xn = mol fraction of the nth substance listed

CS(C)=O + OCCO
viscosity [mPa·s]
Conditions	298.15 K	303.15 K	308.15 K	313.15 K	318.15 K	323.15 K
100 kPa, x1 = 0.105	12.96	10.76	8.98	7.61	6.51	5.63
100 kPa, x1 = 0.1987	10.61	8.91	7.45	6.39	5.54	4.82
100 kPa, x1 = 0.2971	8.58	7.31	6.14	5.32	4.51	4.09
100 kPa, x1 = 0.3911	6.94	5.97	5.09	4.45	3.86	3.48
100 kPa, x1 = 0.5099	5.28	4.59	4.03	3.56	3.02	2.84
100 kPa, x1 = 0.5932	4.45	3.93	3.46	3.07	2.72	2.48
100 kPa, x1 = 0.702	3.68	3.26	2.91	2.61	2.45	2.13
100 kPa, x1 = 0.7931	3.21	2.86	2.58	2.32	2.24	1.91
100 kPa, x1 = 0.9003	2.74	2.46	2.21	2	1.92	1.67
101 kPa, x1 = 0.0799	–	–	10.2	–	–	–
101 kPa, x1 = 0.206	–	–	9.506	–	–	–
101 kPa, x1 = 0.3426	–	–	8.715	–	–	–
101 kPa, x1 = 0.4387	–	–	8.143	–	–	–
101 kPa, x1 = 0.5397	–	–	7.399	–	–	–
101 kPa, x1 = 0.6459	–	–	6.235	–	–	–
101 kPa, x1 = 0.7517	–	–	4.953	–	–	–
101 kPa, x1 = 0.8456	–	–	3.731	–	–	–
101 kPa, x1 = 0.9271	–	–	2.599	–	–	–
101 kPa, x2 = 0.0621	2.42	2.19	1.98	1.8	1.63	1.5
101 kPa, x2 = 0.1227	3.05	2.66	2.43	2.24	2.02	1.84
101 kPa, x2 = 0.1819	4.26	3.66	3.21	2.8	2.51	2.27
101 kPa, x2 = 0.2394	5.61	4.72	4.02	3.49	3.06	2.73
101 kPa, x2 = 0.2958	7.14	5.91	4.88	4.19	3.56	3.14
101 kPa, x2 = 0.3504	8.45	7.01	5.72	4.83	4.12	–
101 kPa, x2 = 0.404	9.69	7.96	6.43	5.48	4.63	–
101 kPa, x2 = 0.4562	10.8	8.81	7.13	6.01	5.11	–
101 kPa, x2 = 0.5076	11.7	9.54	7.73	6.52	5.52	–
101 kPa, x2 = 0.5568	12.6	10.2	8.27	6.95	5.88	–
101 kPa, x2 = 0.6061	13.3	10.7	8.72	7.33	6.2	–
101 kPa, x2 = 0.6537	14	11.2	9.12	7.65	6.49	–
101 kPa, x2 = 0.7004	14.6	11.6	9.44	7.94	6.72	–
101 kPa, x2 = 0.7461	15.1	12	9.75	8.22	6.93	–
101 kPa, x2 = 0.7906	15.5	12.4	9.99	8.48	7.15	–
101 kPa, x2 = 0.8342	16	12.8	10.2	8.71	7.33	–
101 kPa, x2 = 0.8769	16.5	13.1	10.5	8.95	7.53	–
101 kPa, x2 = 0.9189	16.9	13.4	10.9	9.2	7.71	–
101 kPa, x2 = 0.9599	17.3	13.7	11.1	9.41	7.9	–
